Converted amounts (≈) assume the structure as drawn. Marks after values point to notes of the source that are not given here. Non-standard residues stand in square brackets, D forms with d. Residues, ends and D or L forms follow the SMILES beside them. d2Nal = N[C@H](Cc1ccc2ccccc2c1)C(=O)O
What was measured:
[1] = test system: Shigella flexneri ATCC 12022; test: MIC against clinically common bacterial strain; type: cell-based
In short: (§1)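 Broth microdilution (CLSI), twofold steps, MIC endpoint, 5× in parallel.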

[2] = test system: rabbit red blood cells; type: cell-based; details: red cells of rabbit, 1 h
[3] = Serum stability assay (residual level by RP-HPLC); details: human
[4] = test system: Staphylococcus aureus (NRS 384); details: NRS 384, 3 h
Protocol: Trypsin (250 U/mg, pH=8.0) and AMPs (LV-1 to LV-30) were mixed in a ratio of 1:10 (w/w) and added to a reaction buffer (0.2 M sodium phosphate, 1 mM CaCl2), pH 7.5), and then incubated at 37° C. for 3 h.

[5] = test system: Candida glabrata ATCC 15126; type: cell-based
In short: as §1

[6] = test system: Escherichia coli ATCC 25922; type: cell-based
In short: as §1

[7] = test system: Klebsiella pneumoniae ATCC 700603; type: cell-based
In short: as §1

[8] = test system: Salmonella typhimurium ATCC 14028; type: cell-based
In short: as §1

[9] = test system: Pseudomonas aeruginosa ATCC 27853; type: cell-based
In short: as §1

[10] = test system: Bacillus subtilis ATCC 6633; type: cell-based
In short: as §1

[11] = test system: Candida krusei ATCC 6258; type: cell-based
In short: as §1

[12] = test system: Enterococcus ATCC 29212; type: cell-based
In short: as §1

[13] = test system: Candida tropicalis ATCC 750; type: cell-based
In short: as §1

[14] = test system: Trichophyton ATCC MYA-4438; type: cell-based
In short: as §1

[15] = test system: Staphylococcus aureus ATCC 25923; type: cell-based
In short: as §1

[16] = test system: Serratia marcescens ATCC 29021; type: cell-based
In short: as §1

[17] = test system: Candida albicans ATCC MYA-2876; type: cell-based
In short: as §1

[18] = test system: Corynebacterium ATCC 7715; type: cell-based
In short: as §1

[19] = test system: Candida utilis ATCC 9950; type: cell-based
In short: as §1

[20] = test system: Escherichia coli ATCC 25922; test: Oral formulations on mice with systemic bacterial infection; type: in vivo, ICR mice; details: three times a day for 7 days; for Number of mice that died on each day after infection: day 4 / Number of mice that died on each day after infection: day 5 / Number of mice that died on each day after infection: day 6 / Number of mice that died on each day after infection: day 7 / Number of mice that died on each day after infection: day 8 / Average survival times (Days): n = 10; for Average survival times (Days): observed for 14 d
In short: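 ICR mice of both sexes, 10 per group, infected i.p. with 0.2 mL E. coli ATCC 25922 at 1×10^7 CFU/mL. Compounds gavaged by body weight immediately after infection, three times daily for 7 days; deaths and survival time recorded over 14 d observation.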

Structure (SMILES): CC(=O)N[C@H](CCCNC(=N)N)C(=O)N[C@H](CCCCN)C(=O)N[C@H](CC(C)C)C(=O)N[C@H](CC(C)C)C(=O)N[C@H](Cc1ccc2ccccc2c1)C(=O)N[C@H](CCCCN)C(=O)N[C@H](CC(C)C)C(=O)N[C@H](CCCCN)C(=O)N[C@H](Cc1ccc2ccccc2c1)C(=O)N[C@H](CCCCN)C(=O)N[C@H](CCCNC(=N)N)C(N)=O [LV-18] (Ac-[dR][dK][dL][dL][d2Nal][dK][dL][dK][d2Nal][dK][dR]-NH2)
- MIC Shigella flexneri ATCC 12022 [1]: 8 µg/mL (≈ 4.94 µM)
- MHC (minimum hemolytic concentration, lowest concentration causing 10% hemolysis) [2]: >1000 µg/mL
- remaining at 12 h, 0.91 mg/mL [3]: 97.6%
- Trypsin MIC [4]: 1 µg/mL
- MIC Candida glabrata ATCC 15126 [5]: 4 µg/mL (≈ 2.47 µM)
- MIC Escherichia coli ATCC 25922 [6]: 1 µg/mL (≈ 0.618 µM)
- MIC Klebsiella pneumoniae ATCC 700603 [7]: 2 µg/mL (≈ 1.24 µM)
- MIC Salmonella typhimurium ATCC 14028 [8]: 4 µg/mL (≈ 2.47 µM)
- MIC Pseudomonas aeruginosa ATCC 27853 [9]: 1 µg/mL (≈ 0.618 µM)
- MIC Bacillus subtilis ATCC 6633 [10]: 4 µg/mL (≈ 2.47 µM)
- MIC Candida krusei ATCC 6258 [11]: 4 µg/mL (≈ 2.47 µM)
- MIC Enterococcus ATCC 29212 [12]: 4 µg/mL (≈ 2.47 µM)
- MIC Candida tropicalis ATCC 750 [13]: 2 µg/mL (≈ 1.24 µM)
- MIC Trichophyton ATCC MYA-4438 [14]: 16 µg/mL (≈ 9.89 µM)
- MIC Staphylococcus aureus ATCC 25923 [15]: 2 µg/mL (≈ 1.24 µM)
- MIC Serratia marcescens ATCC 29021 [16]: 4 µg/mL (≈ 2.47 µM)
- MIC Candida albicans ATCC MYA-2876 [17]: 4 µg/mL (≈ 2.47 µM)
- MIC Corynebacterium ATCC 7715 [18]: 2 µg/mL (≈ 1.24 µM)
- MIC Candida utilis ATCC 9950 [19]: 8 µg/mL (≈ 4.94 µM)
- Number of mice that died on each day after infection: day 4 ([20]; 0.2 mg/kg gavage): 0 Mouse
- Number of mice that died on each day after infection: day 5 ([20]; 0.2 mg/kg gavage): 1 Mouse
- Number of mice that died on each day after infection: day 6 ([20]; 0.2 mg/kg gavage): 2 Mouse
- Number of mice that died on each day after infection: day 7 ([20]; 0.2 mg/kg gavage): 1 Mouse
- Number of mice that died on each day after infection: day 8 ([20]; 0.2 mg/kg gavage): 0 Mouse
- Average survival times (Days) ([20]; 0.2 mg/kg gavage): 10.8*** Days
- Number of mice that died on each day after infection: day 4 ([20]; 1 mg/kg gavage): 0 Mouse
- Number of mice that died on each day after infection: day 5 ([20]; 1 mg/kg gavage): 1 Mouse
- Number of mice that died on each day after infection: day 6 ([20]; 1 mg/kg gavage): 0 Mouse
- Number of mice that died on each day after infection: day 7 ([20]; 1 mg/kg gavage): 1 Mouse
- Number of mice that died on each day after infection: day 8 ([20]; 1 mg/kg gavage): 0 Mouse
- Average survival times (Days) ([20]; 1 mg/kg gavage): 12.4**** Days
- Number of mice that died on each day after infection: day 4 ([20]; 5 mg/kg gavage): 0 Mouse
- Number of mice that died on each day after infection: day 5 ([20]; 5 mg/kg gavage): 1 Mouse
- Number of mice that died on each day after infection: day 6 ([20]; 5 mg/kg gavage): 2 Mouse
- Number of mice that died on each day after infection: day 7 ([20]; 5 mg/kg gavage): 0 Mouse
- Number of mice that died on each day after infection: day 8 ([20]; 5 mg/kg gavage): 0 Mouse
- Average survival times (Days) ([20]; 5 mg/kg gavage): 11.5**** Days
- survival time of mice infected with Escherichia coli ([20]; gavage, observed 14 d): superior to those of the Levofloxacin group
